Reference: US12018253B2, “Method of detecting Polycomb Repressive Complex activity” (IMBA—INSTITUT FÜR MOLEKULARE BIOTECHNOLOGIE GMBH, priority 2017, dated 2024)
Non-standard residues stand in square brackets, D forms with d. Residues, ends and D or L forms follow the SMILES beside them. *: point of attachment. Benzoyl(4-tBu) = CC(C)(C)c1ccc(C(=O)*)cc1; Lys(Et2) = CCN(CC)CCCC[C@H](N)C(=O)O

How the values were obtained:
[1] = target: T1, PRC2 (Mus musculus, UniProt Q61188); assay: Immuno blot of H3K27me3, Ezh2 and Cbx7 in parental TetO-mESCs treated with GSK126; assay type: cell-based
T1 construct: endogenous in cells; host or cells: parental TetO-mESCs (mouse embryonic stem cells derived from haploid mESCs)
T1 sequence (Q61188 whole entry): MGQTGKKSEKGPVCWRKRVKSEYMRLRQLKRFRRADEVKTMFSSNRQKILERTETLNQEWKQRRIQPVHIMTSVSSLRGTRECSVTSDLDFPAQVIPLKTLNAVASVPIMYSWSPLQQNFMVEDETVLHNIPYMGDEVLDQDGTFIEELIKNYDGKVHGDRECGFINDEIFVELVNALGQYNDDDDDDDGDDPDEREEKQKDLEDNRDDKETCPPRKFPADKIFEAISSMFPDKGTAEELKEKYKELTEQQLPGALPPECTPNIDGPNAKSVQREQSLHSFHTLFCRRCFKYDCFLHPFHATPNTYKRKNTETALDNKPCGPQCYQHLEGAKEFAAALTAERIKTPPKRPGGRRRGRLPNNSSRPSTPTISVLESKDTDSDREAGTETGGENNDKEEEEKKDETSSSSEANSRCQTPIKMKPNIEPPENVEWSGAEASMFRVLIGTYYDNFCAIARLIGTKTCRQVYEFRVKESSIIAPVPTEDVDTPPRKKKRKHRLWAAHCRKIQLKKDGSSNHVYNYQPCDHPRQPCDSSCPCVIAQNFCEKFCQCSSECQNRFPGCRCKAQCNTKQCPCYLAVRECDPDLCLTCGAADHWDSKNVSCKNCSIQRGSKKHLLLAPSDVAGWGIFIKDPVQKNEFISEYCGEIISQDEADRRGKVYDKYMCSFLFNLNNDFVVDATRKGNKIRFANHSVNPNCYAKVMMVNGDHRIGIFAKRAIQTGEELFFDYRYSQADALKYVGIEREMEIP
T1 sequence (Q921E6 whole entry partner): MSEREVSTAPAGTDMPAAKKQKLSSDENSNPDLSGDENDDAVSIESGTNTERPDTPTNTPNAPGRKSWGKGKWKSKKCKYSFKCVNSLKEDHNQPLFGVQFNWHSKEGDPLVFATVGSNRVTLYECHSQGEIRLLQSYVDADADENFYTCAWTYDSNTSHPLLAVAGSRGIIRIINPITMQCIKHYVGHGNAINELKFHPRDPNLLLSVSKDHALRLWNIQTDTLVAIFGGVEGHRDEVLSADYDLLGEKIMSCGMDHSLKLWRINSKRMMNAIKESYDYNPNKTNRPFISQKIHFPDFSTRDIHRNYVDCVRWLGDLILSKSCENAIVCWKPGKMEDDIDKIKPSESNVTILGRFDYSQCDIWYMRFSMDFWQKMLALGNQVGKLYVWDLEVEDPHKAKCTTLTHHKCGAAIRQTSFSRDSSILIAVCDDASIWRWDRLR
T1 sequence (Q80U70 whole entry partner): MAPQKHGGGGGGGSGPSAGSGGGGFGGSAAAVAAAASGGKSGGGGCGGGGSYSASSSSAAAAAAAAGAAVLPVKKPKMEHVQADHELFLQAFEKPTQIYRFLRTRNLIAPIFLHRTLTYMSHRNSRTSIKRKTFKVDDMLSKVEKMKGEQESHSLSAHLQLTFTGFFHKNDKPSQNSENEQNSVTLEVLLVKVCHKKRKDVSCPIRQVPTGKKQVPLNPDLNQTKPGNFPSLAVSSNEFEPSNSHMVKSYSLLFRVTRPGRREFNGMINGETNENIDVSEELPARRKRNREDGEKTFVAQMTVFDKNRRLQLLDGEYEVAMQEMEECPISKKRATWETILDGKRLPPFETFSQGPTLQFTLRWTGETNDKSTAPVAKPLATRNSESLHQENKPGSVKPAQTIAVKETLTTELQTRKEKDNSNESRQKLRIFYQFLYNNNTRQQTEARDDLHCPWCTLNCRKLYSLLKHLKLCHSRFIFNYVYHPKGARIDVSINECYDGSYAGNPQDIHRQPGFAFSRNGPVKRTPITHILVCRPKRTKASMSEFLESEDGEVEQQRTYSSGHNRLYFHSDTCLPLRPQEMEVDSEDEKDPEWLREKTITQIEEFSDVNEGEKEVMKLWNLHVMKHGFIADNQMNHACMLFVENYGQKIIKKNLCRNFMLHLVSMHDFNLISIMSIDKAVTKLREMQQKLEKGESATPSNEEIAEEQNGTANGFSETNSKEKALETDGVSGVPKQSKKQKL
T1 sequence (Q60972 whole entry partner): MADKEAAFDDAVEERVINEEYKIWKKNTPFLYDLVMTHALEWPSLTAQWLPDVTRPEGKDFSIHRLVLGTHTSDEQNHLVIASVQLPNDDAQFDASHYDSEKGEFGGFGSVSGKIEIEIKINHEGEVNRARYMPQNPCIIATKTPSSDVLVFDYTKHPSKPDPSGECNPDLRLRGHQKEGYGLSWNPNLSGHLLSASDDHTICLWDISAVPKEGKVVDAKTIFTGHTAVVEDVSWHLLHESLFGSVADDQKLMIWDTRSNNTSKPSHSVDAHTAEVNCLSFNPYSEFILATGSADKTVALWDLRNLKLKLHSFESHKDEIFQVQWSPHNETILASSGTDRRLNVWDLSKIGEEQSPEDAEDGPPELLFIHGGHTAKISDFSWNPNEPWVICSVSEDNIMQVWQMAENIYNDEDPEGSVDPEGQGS
Protocol: Nuclear extract from 10×10^6 mESCs was obtained by lysis in Buffer A (final: 25 mM Hepes ph 7.6, 5 mM MgCl2, 25 mM KCl, 0.05 mM EDTA, 10% Glycerol, 1 mM DTT, 1 mM PMSF, 1× Complete Mini protease inhibitor) followed by collection in RIPA buffer (final: 150 mM NaCl, 1% triton, 0.5% sodium deoxy-cholate, 0.1% SDS, 50 mM Tris pH 8.0). Nuclear extracts were homogenized by sonication in a Diagenode Bioruptor and concentration was determined by Bradford assay (Biorad). 20 μg/lane total protein was run on Novex Life Technology NuPAGE 4-12% Bis-Tris gels in Invitrogen NuPAGE MES SDS Running Buffer and transferred on a Merck Chemicals Immobilon-P Membrane (PVDF […]). The membrane was blocked (5% non-fat dry milk in 1×PBS, 0.1% Tween 20) and incubated with the following primary antibodies (5% non-fat dry milk in 1×PBS, 0.1% Tween 20): H3K27me3 (Diagenode, C15410195), Cbx7 (Abcam, ab21873), RYBP (Sigma, PRS2227), H2AK119ub (Cell Signaling, D27C4), Ezh2 (Active Motif, 39901). Finally, the membrane was incubated with corresponding secondary HRP coupled antibodies (5% non-fat dry milk in 1×PBS, 0.1% Tween 20), developed using Clarity Western ECL Substrate (Biorad) and imaged by a ChemiDoc XRS+ Imaging system (Biorad).

[2] = test system: cPRC1-TetO-mESCs; assay: Chemical inhibition in cPRC1-TetO-mESCs (TetR-Cbx7 dual GFP/BFP reporter), flow cytometry without and with Dox; assay type: cell-based, mouse; details: for initiation of reporter gene silencing: TetR-Cbx7 tethered, absence of Dox; for maintenance of reporter gene silencing (repression): presence of Dox (1 μg/ml), increasing concentrations of compound

`CC[C@H](C)n1cc(C)c2c(C(=O)NCc3c(C)cc(C)[nH]c3=O)cc(-c3ccc(N4CCNCC4)nc3)cc21` [GSK126] was tested, and the “H3K27me3 by Western blot” value ([1]; GSK126-treated parental mESCs (4 μM per FIG. 10A)) was “undetectable”, the “inhibition of the catalytic activity of PRC2” value ([1]; parental TetO-mESCs, 4 μM GSK126, immuno blot) was “specific and reversible inhibition” and the “endogenous PRC2 and cPRC1 stability” value ([1]; parental TetO-mESCs, 4 μM GSK126, immuno blot of Ezh2 and Cbx7) was “without disrupting”. For the same compound, the “initiation of reporter gene silencing” value [2] was “did not disrupt”, the “reduction in silencing, distal BFP reporter compared with proximal GFP reporter” value ([2]; presence of Dox) was “more prominent at the distal BFP reporter than the proximal GFP promoter” and the “maintenance of reporter gene silencing (repression)” value [2] was “reduced by GSK126-treatment in a dose-dependent manner”.

With `CCN(CC)CCCC[C@H](NC(=O)[C@H](CC(C)C)NC(=O)[C@H](C)NC(=O)[C@H](Cc1ccccc1)NC(=O)c1ccc(C(C)(C)C)cc1)C(=O)N[C@@H](CO)C(=O)OC` [UNC3866] ({Benzoyl(4-tBu)}-FAL[Lys(Et2)]S-OMe) the “initiation of reporter gene silencing” value [2] was “Neither compound had a significant effect” and the “maintenance of reporter gene silencing (repression)” value [2] was “disrupted only by UNC3866 treatment in a dose-dependent manner”.
